US9585877B2, “Methods of maintaining, treating or improving cognitive function” (Forum Pharmaceuticals, Inc., priority 2012, dated 2017)

Tests used:
[1] = system: subjects with mild-to-moderate Alzheimer's disease; test: Clinical study, ADAS-Cog-13; format: in vivo, human
Protocol: (§1) A double-blind study of 3 doses of the Test Composition or placebo in subjects with mild-to-moderate Alzheimer's disease, with or without receiving a concomitant AChEI for 24 weeks (168 days) after a 7 day placebo run-in period.
(§2) Total number of subjects in the safety population was 409 subjects that were dosed once-daily with a dosing-capsule for a period of 168 days. The subjects dosed, and the particular dosing, included: 104 subjects dosed with Placebo capsule; and 305 subjects dosed with Test Compound (104 subjects with 0.3 mg capsules; 101 subjects with 1 mg capsules; and 100 subjects with 2 mg capsules).
(§3) The population included generally healthy male or female subjects, aged 50 to ≦85 years, with mild-to-moderate Alzheimer's disease, consistent with criteria defined by a Work Group of the National Institute of Neurological and Communicative Disorders and Stroke—Alzheimer's Disease and Related Disorders Association, of mild to moderate severity, with a Mini-Mental State Examination score (MMSE) 14 and ≦24, and a Clinical Dementia Rating Scale Sum of the Boxes (CDR-SB) score of 2. […] Subjects were required to be either receiving a stable dose of an AChEI (donepezil or rivastigmine) for at least 3 months before screening or not presently being treated with an AChEI or mementine for at least 30 days.
(§4) Subjects with mild to moderate Alzheimer's disease receiving stable treatment with an AChEI (donepezil or rivastigmine: ‘add-on’ subjects) or not receiving an AChEI (de novo subjects′) received 0.3, 1, or 2 mg doses of Test Composition or placebo for up to 24 weeks (168 days) of double-blind treatment, after a 7-day single-blind, placebo run-in period to assess study drug compliance. A follow-up telephone contact was conducted approximately 15 days after the last dose of study drug for questions regarding safety.
Cognitive Part of the Alzheimer's Disease Assessment Scale (ADAS-Cog-13)
The ADAS-Cog-13 is identical to the ADAS-Cog-11 assessment group (see above), with the addition of test items: Delayed Word Recall, and Digit (Number) Cancellation.
The ADAS-cog-13 total score ranges from 0 to 85 (higher scores indicate more severe impairment). A decrease from baseline indicates improvement.

[2] = system: subjects with mild-to-moderate Alzheimer's disease; test: Clinical study, Clinical Dementia Rating-Sum of Boxes (CDR-SB); format: in vivo, human
Protocol: as §1, §2, §3, §4
Clinical Dementia Rating-Sum of Boxes CDR-SB
The CDR-SB test employed herein is based on the procedure developed by Hughs C D, Berg L, Danziger W L, Coben L A, and Martin R L. “A new clinical scale for the staging of dementia”; Br J Psychiatry. 1982; 140:566-572, and provides an assessment of six (6) dimensions: Memory, Orientation, Judgment and Problem Solving, Community Affairs, Home and Hobbies, and Personal Care.
Each of the six CDR dimensions are scored separately with well-defined anchors from 0 to 3.0 (no impairment to severe illness). The total sum of boxes ranges from 0 to 18. Higher totals indicate more severe impairment. A decrease from baseline indicates improvement.

[3] = Add-On patients (stable donepezil or rivastigmine), 0.3 mg daily dose, Week 4
[4] = Add-On patients (stable donepezil or rivastigmine), 0.3 mg daily dose, Week 12
[5] = Add-On patients (stable donepezil or rivastigmine), 0.3 mg daily dose, Week 18
[6] = Add-On patients (stable donepezil or rivastigmine), 0.3 mg daily dose, Week 23
[7] = Add-On patients (stable donepezil or rivastigmine), 1 mg daily dose, Week 4
[8] = Add-On patients (stable donepezil or rivastigmine), 1 mg daily dose, Week 12
[9] = Add-On patients (stable donepezil or rivastigmine), 1 mg daily dose, Week 18
[10] = Add-On patients (stable donepezil or rivastigmine), 1 mg daily dose, Week 23
[11] = Add-On patients (stable donepezil or rivastigmine), 2 mg daily dose, Week 4
[12] = Add-On patients (stable donepezil or rivastigmine), 2 mg daily dose, Week 12
[13] = Add-On patients (stable donepezil or rivastigmine), 2 mg daily dose, Week 18
[14] = Add-On patients (stable donepezil or rivastigmine), 2 mg daily dose, Week 23
[15] = de novo patients, 0.3 mg daily dose, Week 4
[16] = de novo patients, 0.3 mg daily dose, Week 12
[17] = de novo patients, 0.3 mg daily dose, Week 18
[18] = de novo patients, 0.3 mg daily dose, Week 23
[19] = de novo patients, 1 mg daily dose, Week 4
[20] = de novo patients, 1 mg daily dose, Week 12
[21] = de novo patients, 1 mg daily dose, Week 18
[22] = de novo patients, 1 mg daily dose, Week 23
[23] = de novo patients, 2 mg daily dose, Week 4
[24] = de novo patients, 2 mg daily dose, Week 12
[25] = de novo patients, 2 mg daily dose, Week 18
[26] = de novo patients, 2 mg daily dose, Week 23

Structure (SMILES): Cl.O.O=C(N[C@H]1CN2CCC1CC2)c1cc2cccc(Cl)c2s1 [Test Compound, (R)-7-chloro-N-(quinuclidin-3-yl)benzo[b]thiophene-2-carboxamide, hydrochloride, monohydrate]
- ADAS-Cog-13 (Baseline was assigned the value of zero @ Week 0) ([1]; 0.3 mg daily dose, Week 4): −0.615
- ADAS-Cog-13 (Baseline was assigned the value of zero @ Week 0) ([1]; 0.3 mg daily dose, Week 12): −0.5876
- ADAS-Cog-13 (Baseline was assigned the value of zero @ Week 0) ([1]; 0.3 mg daily dose, Week 18): −0.3132
- ADAS-Cog-13 (Baseline was assigned the value of zero @ Week 0) ([1]; 0.3 mg daily dose, Week 23): 0.0915
- ADAS-Cog-13 (Baseline was assigned the value of zero @ Week 0) ([1]; 1 mg daily dose, Week 4): −0.8012
- ADAS-Cog-13 (Baseline was assigned the value of zero @ Week 0) ([1]; 1 mg daily dose, Week 12): −1.2029
- ADAS-Cog-13 (Baseline was assigned the value of zero @ Week 0) ([1]; 1 mg daily dose, Week 18): −0.3222
- ADAS-Cog-13 (Baseline was assigned the value of zero @ Week 0) ([1]; 1 mg daily dose, Week 23): −0.0565
- ADAS-Cog-13 (Baseline was assigned the value of zero @ Week 0) ([1]; 2 mg daily dose, Week 4): −0.0185
- ADAS-Cog-13 (Baseline was assigned the value of zero @ Week 0) ([1]; 2 mg daily dose, Week 12): −1.4328
- ADAS-Cog-13 (Baseline was assigned the value of zero @ Week 0) ([1]; 2 mg daily dose, Week 18): −1.6593
- ADAS-Cog-13 (Baseline was assigned the value of zero @ Week 0) ([1]; 2 mg daily dose, Week 23): −1.6899
- ADAS-Cog 13 Effect Size ([1]; 2 mg dose versus Placebo): 0.39
- ADAS-Cog-13 (Baseline was assigned the value of zero @ Week 0) [1, 3]: −0.9985
- ADAS-Cog-13 (Baseline was assigned the value of zero @ Week 0) [1, 4]: −0.2474
- ADAS-Cog-13 (Baseline was assigned the value of zero @ Week 0) [1, 5]: −0.4557
- ADAS-Cog-13 (Baseline was assigned the value of zero @ Week 0) [1, 6]: 0.2752
- ADAS-Cog-13 (Baseline was assigned the value of zero @ Week 0) [1, 7]: −1.0728
- ADAS-Cog-13 (Baseline was assigned the value of zero @ Week 0) [1, 8]: −0.0705
- ADAS-Cog-13 (Baseline was assigned the value of zero @ Week 0) [1, 9]: 0.6239
- ADAS-Cog-13 (Baseline was assigned the value of zero @ Week 0) [1, 10]: 1.4205
- ADAS-Cog-13 (Baseline was assigned the value of zero @ Week 0) [1, 11]: −0.455
- ADAS-Cog-13 (Baseline was assigned the value of zero @ Week 0) [1, 12]: −0.9708
- ADAS-Cog-13 (Baseline was assigned the value of zero @ Week 0) [1, 13]: −1.8659
- ADAS-Cog-13 (Baseline was assigned the value of zero @ Week 0) [1, 14]: −1.1679
- ADAS-Cog-13 (Baseline was assigned the value of zero @ Week 0) [1, 15]: −0.545
- ADAS-Cog-13 (Baseline was assigned the value of zero @ Week 0) [1, 16]: −1.0759
- ADAS-Cog-13 (Baseline was assigned the value of zero @ Week 0) [1, 17]: −0.4416
- ADAS-Cog-13 (Baseline was assigned the value of zero @ Week 0) [1, 18]: −0.3226
- ADAS-Cog-13 (Baseline was assigned the value of zero @ Week 0) [1, 19]: −0.5942
- ADAS-Cog-13 (Baseline was assigned the value of zero @ Week 0) [1, 20]: −2.311
- ADAS-Cog-13 (Baseline was assigned the value of zero @ Week 0) [1, 21]: −1.2239
- ADAS-Cog-13 (Baseline was assigned the value of zero @ Week 0) [1, 22]: −1.4169
- ADAS-Cog-13 (Baseline was assigned the value of zero @ Week 0) [1, 23]: 0.3542
- ADAS-Cog-13 (Baseline was assigned the value of zero @ Week 0) [1, 24]: −1.9196
- ADAS-Cog-13 (Baseline was assigned the value of zero @ Week 0) [1, 25]: −1.5539
- ADAS-Cog-13 (Baseline was assigned the value of zero @ Week 0) [1, 26]: −2.2283
- CDR-SB (Baseline was assigned the value of zero @ Week 0) ([2]; 0.3 mg daily dose, Week 4): 0.0026
- CDR-SB (Baseline was assigned the value of zero @ Week 0) ([2]; 0.3 mg daily dose, Week 12): 0.0542
- CDR-SB (Baseline was assigned the value of zero @ Week 0) ([2]; 0.3 mg daily dose, Week 18): 0.2325
- CDR-SB (Baseline was assigned the value of zero @ Week 0) ([2]; 0.3 mg daily dose, Week 23): 0.4427
- CDR-SB (Baseline was assigned the value of zero @ Week 0) ([2]; 1 mg daily dose, Week 4): −0.2365
- CDR-SB (Baseline was assigned the value of zero @ Week 0) ([2]; 1 mg daily dose, Week 12): −0.0811
- CDR-SB (Baseline was assigned the value of zero @ Week 0) ([2]; 1 mg daily dose, Week 18): −0.0424
- CDR-SB (Baseline was assigned the value of zero @ Week 0) ([2]; 1 mg daily dose, Week 23): 0.1214
- CDR-SB (Baseline was assigned the value of zero @ Week 0) ([2]; 2 mg daily dose, Week 4): −0.1361
- CDR-SB (Baseline was assigned the value of zero @ Week 0) ([2]; 2 mg daily dose, Week 12): −0.1352
- CDR-SB (Baseline was assigned the value of zero @ Week 0) ([2]; 2 mg daily dose, Week 18): −0.1368
- CDR-SB (Baseline was assigned the value of zero @ Week 0) ([2]; 2 mg daily dose, Week 23): −0.088
- CDR-SB Effect Size ([2]; 2 mg dose versus Placebo): 0.31
- CDR-SB (Baseline was assigned the value of zero @ Week 0) [2, 3]: −0.2148
- CDR-SB (Baseline was assigned the value of zero @ Week 0) [2, 4]: −0.1333
- CDR-SB (Baseline was assigned the value of zero @ Week 0) [2, 5]: 0.0576
- CDR-SB (Baseline was assigned the value of zero @ Week 0) [2, 6]: 0.4174
- CDR-SB (Baseline was assigned the value of zero @ Week 0) [2, 7]: −0.2473
- CDR-SB (Baseline was assigned the value of zero @ Week 0) [2, 8]: 0.1511
- CDR-SB (Baseline was assigned the value of zero @ Week 0) [2, 9]: 0.2268
- CDR-SB (Baseline was assigned the value of zero @ Week 0) [2, 10]: 0.476
- CDR-SB (Baseline was assigned the value of zero @ Week 0) [2, 11]: −0.236
- CDR-SB (Baseline was assigned the value of zero @ Week 0) [2, 12]: −0.2247
- CDR-SB (Baseline was assigned the value of zero @ Week 0) [2, 13]: −0.1084
- CDR-SB (Baseline was assigned the value of zero @ Week 0) [2, 14]: −0.1633
- CDR-SB (Baseline was assigned the value of zero @ Week 0) [2, 15]: 0.0816
- CDR-SB (Baseline was assigned the value of zero @ Week 0) [2, 16]: 0.1082
- CDR-SB (Baseline was assigned the value of zero @ Week 0) [2, 17]: 0.27
- CDR-SB (Baseline was assigned the value of zero @ Week 0) [2, 18]: 0.3392
- CDR-SB (Baseline was assigned the value of zero @ Week 0) [2, 19]: −0.3161
- CDR-SB (Baseline was assigned the value of zero @ Week 0) [2, 20]: −0.3858
- CDR-SB (Baseline was assigned the value of zero @ Week 0) [2, 21]: −0.3763
- CDR-SB (Baseline was assigned the value of zero @ Week 0) [2, 22]: −0.288
- CDR-SB (Baseline was assigned the value of zero @ Week 0) [2, 23]: −0.133
- CDR-SB (Baseline was assigned the value of zero @ Week 0) [2, 24]: −0.1475
- CDR-SB (Baseline was assigned the value of zero @ Week 0) [2, 25]: −0.2625
- CDR-SB (Baseline was assigned the value of zero @ Week 0) [2, 26]: −0.1239
